Each structure is given as a SMILES string.

In the experiment the target is ROCK2 (human) (UniProt O75116). Briefly: Inhibition of ROCK2 Kinase Activity.
ROCK2 (human), sequence (O75116 whole entry, looked up): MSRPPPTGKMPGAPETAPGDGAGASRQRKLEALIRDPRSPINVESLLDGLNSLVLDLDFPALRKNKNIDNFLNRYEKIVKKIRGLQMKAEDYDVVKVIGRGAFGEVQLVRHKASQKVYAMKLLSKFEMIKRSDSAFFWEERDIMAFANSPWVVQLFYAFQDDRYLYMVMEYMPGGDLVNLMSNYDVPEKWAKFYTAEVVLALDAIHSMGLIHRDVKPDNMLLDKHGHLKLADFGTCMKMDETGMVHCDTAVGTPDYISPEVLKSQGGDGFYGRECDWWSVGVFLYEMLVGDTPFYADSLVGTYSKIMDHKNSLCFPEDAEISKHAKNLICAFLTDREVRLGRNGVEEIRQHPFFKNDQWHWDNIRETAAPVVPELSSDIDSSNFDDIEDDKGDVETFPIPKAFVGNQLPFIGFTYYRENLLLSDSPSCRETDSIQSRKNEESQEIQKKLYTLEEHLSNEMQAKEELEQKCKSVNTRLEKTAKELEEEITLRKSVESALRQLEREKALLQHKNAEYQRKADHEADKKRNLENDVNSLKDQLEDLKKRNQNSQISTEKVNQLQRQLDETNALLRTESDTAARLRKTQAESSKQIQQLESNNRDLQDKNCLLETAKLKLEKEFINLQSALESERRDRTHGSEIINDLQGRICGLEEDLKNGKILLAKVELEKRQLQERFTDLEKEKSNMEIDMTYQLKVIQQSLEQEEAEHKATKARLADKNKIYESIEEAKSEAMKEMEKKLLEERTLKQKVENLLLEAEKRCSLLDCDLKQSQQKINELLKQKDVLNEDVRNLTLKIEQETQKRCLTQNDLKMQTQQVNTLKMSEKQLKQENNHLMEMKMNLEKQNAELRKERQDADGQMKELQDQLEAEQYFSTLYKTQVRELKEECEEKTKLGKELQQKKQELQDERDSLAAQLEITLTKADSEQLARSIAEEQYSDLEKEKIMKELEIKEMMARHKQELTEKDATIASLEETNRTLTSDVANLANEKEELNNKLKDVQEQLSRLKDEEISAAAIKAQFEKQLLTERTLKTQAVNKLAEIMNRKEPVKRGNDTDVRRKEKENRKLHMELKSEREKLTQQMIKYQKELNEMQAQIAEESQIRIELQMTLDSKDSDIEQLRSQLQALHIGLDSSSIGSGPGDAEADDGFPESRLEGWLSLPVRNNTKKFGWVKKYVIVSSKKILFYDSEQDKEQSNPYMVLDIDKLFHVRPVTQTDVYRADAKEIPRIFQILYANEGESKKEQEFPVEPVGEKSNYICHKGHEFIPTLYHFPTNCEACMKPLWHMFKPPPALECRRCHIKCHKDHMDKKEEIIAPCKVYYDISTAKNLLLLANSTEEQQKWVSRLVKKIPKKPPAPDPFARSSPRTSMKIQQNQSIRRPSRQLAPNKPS
`NC(C(=O)N1CCCC(CO)C1)c1ccc(C(=O)Nc2ccncc2)cc1` (stereo unspecified) returned an IC50 of 500 to 5000 nM. The value for `NC(CC(=O)N1CCCCC1c1ccc(F)cc1)c1ccc(C(=O)Nc2ccncc2)cc1` (stereo unspecified) was below 500 nM. In the case of `NC(CC(=O)N1CCc2ccccc2C1)c1ccc(C(=O)Nc2ccncc2)cc1` (stereo unspecified) it was below 500 nM. In the case of `NC(CC(=O)N1CCC(O)(c2ccccc2)CC1)c1ccc(C(=O)Nc2ccncc2)cc1` (stereo unspecified) it was below 500 nM; in that of `COC(=O)c1ccc2c(c1)CCN(C(=O)CC(N)c1ccc(C(=O)Nc3ccncc3)cc1)C2` (stereo unspecified), 500 to 5000 nM. For `CC1CCN(C(=O)C(N)c2ccc(C(=O)Nc3ccncc3)cc2)CC1` (stereo unspecified), the IC50 is below 500 nM. The value for `NC(CC(=O)N1CCN(c2ccccc2)CC1)c1ccc(C(=O)Nc2ccncc2)cc1` (stereo unspecified) was below 500 nM; that for `COc1ccc(S(=O)(=O)N2CCCC2C(N)c2ccc(C(=O)Nc3ccncc3)cc2)cc1` (stereo unspecified) was 500 to 5000 nM; that for `CN(CC(N)c1ccc(C(=O)Nc2ccncc2)cc1)S(=O)(=O)c1ccc(F)cc1` (stereo unspecified) was 500 to 5000 nM. `NC(C(=O)NCCn1ccnc1)c1ccc(C(=O)Nc2ccncc2)cc1` (stereo unspecified) returned an IC50 of 500 to 5000 nM. With `NC(C(=O)N1CCC(O)(c2ccccc2)CC1)c1ccc(C(=O)Nc2ccncc2)cc1` (stereo unspecified), the IC50 lay in the range of 500 to 5000 nM. The value for `NC(CC(=O)N1CCCCC1c1cccc2ccccc12)c1ccc(C(=O)Nc2ccncc2)cc1` (stereo unspecified) was below 500 nM; that for `COc1ccc(Cl)cc1C1CCCCN1C(=O)CC(N)c1ccc(C(=O)Nc2ccncc2)cc1` (stereo unspecified) was below 500 nM; that for `NC(CC(=O)N1CCOCC1c1ccc(Cl)cc1)c1ccc(C(=O)Nc2ccncc2)cc1` (stereo unspecified) was below 500 nM. In the case of `NC(CC(=O)N1CCOCC1c1ccc(F)cc1)c1ccc(C(=O)Nc2ccncc2)cc1` (stereo unspecified) it was below 500 nM; in that of `NC(CC(=O)N1CCCCC1c1ccccc1)c1ccc(C(=O)Nc2ccncc2)cc1` (stereo unspecified), below 500 nM. The value for `NC(CC(=O)N1CCCC1c1ccc(Cl)c(Cl)c1)c1ccc(C(=O)Nc2ccncc2)cc1` (stereo unspecified) was below 500 nM. On to `COc1ccccc1CNC(=O)C(N)c1ccc(C(=O)Nc2ccncc2)cc1` (stereo unspecified), for which the IC50 is below 500 nM.

Compound `CC1CCC(NC(=O)C(N)c2ccc(C(=O)Nc3ccncc3)cc2)CC1` (stereo unspecified) showed an IC50 of 500 to 5000 nM. The value for `NC(C(=O)NCCc1ccccc1)c1ccc(C(=O)Nc2ccncc2)cc1` (stereo unspecified) was below 500 nM; that for `COc1ccc(OC)c(S(=O)(=O)NCC(N)c2ccc(C(=O)Nc3ccncc3)cc2)c1` (stereo unspecified) was below 500 nM. In turn, `NC(C(=O)NC1Cc2ccccc2C1)c1ccc(C(=O)Nc2ccncc2)cc1` (stereo unspecified) came in with an IC50 below 500 nM. In the case of `NC(C(=O)N1CCN(c2ccccc2)CC1)c1ccc(C(=O)Nc2ccncc2)cc1` (stereo unspecified) it was 500 to 5000 nM; in that of `NC(CC(=O)N1CCN(Cc2ccccc2F)CC1)c1ccc(C(=O)Nc2ccncc2)cc1` (stereo unspecified), below 500 nM. The value for `NC(CC(=O)N1CCCCC1c1cc(Cl)ccc1Cl)c1ccc(C(=O)Nc2ccncc2)cc1` (stereo unspecified) was below 500 nM; that for `N[C@H](CC(=O)N1CCC[C@H]1c1cccc(F)c1)c1ccc(C(=O)Nc2ccncc2)cc1` was below 500 nM. In the case of `NC(CNS(=O)(=O)c1cccc(Cl)c1)c1ccc(C(=O)Nc2ccncc2)cc1` (stereo unspecified) it was below 500 nM; in that of `NC(C(=O)Nc1ccccc1)c1ccc(C(=O)Nc2ccncc2)cc1` (stereo unspecified), 500 to 5000 nM; in that of `NC(CC(=O)N1CCC(Cc2ccccc2)CC1)c1ccc(C(=O)Nc2ccncc2)cc1` (stereo unspecified), below 500 nM. In the case of `NC(CC(=O)N1CCOCC1)c1ccc(C(=O)Nc2ccncc2)cc1` (stereo unspecified), the IC50 was below 500 nM. In the case of `NC(CNS(=O)(=O)c1ccccc1F)c1ccc(C(=O)Nc2ccncc2)cc1` (stereo unspecified) it was below 500 nM; in that of `NC(C(=O)N1CCC(c2ccccc2)CC1)c1ccc(C(=O)Nc2ccncc2)cc1` (stereo unspecified), 500 to 5000 nM; in that of `NC(C(=O)N1CCOCC1)c1ccc(C(=O)Nc2ccncc2)cc1` (stereo unspecified), below 500 nM.

In turn, `CCCS(=O)(=O)NCC(N)c1ccc(C(=O)Nc2ccncc2)cc1` (stereo unspecified) displayed an IC50 below 500 nM. In the case of `NC(c1ccc(C(=O)Nc2ccncc2)cc1)C1CCCN1S(=O)(=O)c1ccccc1Cl` (stereo unspecified) it was 500 to 5000 nM; in that of `NC(C(=O)N1CCN(CCO)CC1)c1ccc(C(=O)Nc2ccncc2)cc1` (stereo unspecified), 500 to 5000 nM. `NC(CC(=O)N1CCC(c2c[nH]c3ccccc23)CC1)c1ccc(C(=O)Nc2ccncc2)cc1` (stereo unspecified) returned an IC50 below 500 nM.

As for `NC(C(=O)NC1CCCCC1)c1ccc(C(=O)Nc2ccncc2)cc1` (stereo unspecified), the IC50 was in the range of 500 to 5000 nM.

The compound `NC(C(=O)NCC1CCCO1)c1ccc(C(=O)Nc2ccncc2)cc1` (stereo unspecified) came in with a half-maximal inhibitory concentration (IC50) of 500 to 5000 nM. The compound `Cc1ccc(CN2CCC(NC(=O)C(N)c3ccc(C(=O)Nc4ccncc4)cc3)CC2)s1` (stereo unspecified) gave an IC50 of 500 to 5000 nM. The value for `CC1CN(C(=O)C(N)c2ccc(C(=O)Nc3ccncc3)cc2)CC(C)O1` (stereo unspecified) was 500 to 5000 nM; that for `NC(c1ccc(C(=O)Nc2ccncc2)cc1)C1CCCN1S(=O)(=O)c1ccccc1F` (stereo unspecified) was 500 to 5000 nM; that for `NC(CNS(=O)(=O)c1ccc(F)cc1)c1ccc(C(=O)Nc2ccncc2)cc1` (stereo unspecified) was below 500 nM. In the case of `COc1ccc(C2c3[nH]c4ccccc4c3CCN2C(=O)CC(N)c2ccc(C(=O)Nc3ccncc3)cc2)cc1Br` (stereo unspecified) it was 500 to 5000 nM. In the case of `COc1ccc(S(=O)(=O)N(C)C[C@@H](N)c2ccc(C(=O)Nc3ccncc3)cc2)cc1` it was below 500 nM; in that of `NC(C(=O)N1CCc2ccccc2C1)c1ccc(C(=O)Nc2ccncc2)cc1` (stereo unspecified), below 500 nM; in that of `CN(CCO)C(=O)C(N)c1ccc(C(=O)Nc2ccncc2)cc1` (stereo unspecified), 500 to 5000 nM. The compound `NC(CC(=O)N1CCCC1c1ccc(F)cc1)c1ccc(C(=O)Nc2ccncc2)cc1` (stereo unspecified) gave an IC50 below 500 nM. In the case of `CC1CC(C)CN(C(=O)CC(N)c2ccc(C(=O)Nc3ccncc3)cc2)C1` (stereo unspecified) it was below 500 nM.

Compound `CC(C)N1CCN(C(=O)C(N)c2ccc(C(=O)Nc3ccncc3)cc2)CC1` (stereo unspecified) had an IC50 of 500 to 5000 nM. The value for `NC(c1ccc(C(=O)Nc2ccncc2)cc1)C1CCCN1S(=O)(=O)c1cccc(F)c1` (stereo unspecified) was 500 to 5000 nM. Turning to `NC(C(=O)NCc1ccncc1)c1ccc(C(=O)Nc2ccncc2)cc1` (stereo unspecified), the IC50 was 500 to 5000 nM.

Take `NC(C(=O)NCC1CC1)c1ccc(C(=O)Nc2ccncc2)cc1` (stereo unspecified): the IC50 was in the range of 500 to 5000 nM.

The compound `CN(Cc1ccccc1)C(=O)C(N)c1ccc(C(=O)Nc2ccncc2)cc1` (stereo unspecified) returned an IC50 below 500 nM. In the case of `NC(CC(=O)N1CCN(Cc2ccc(F)cc2)CC1)c1ccc(C(=O)Nc2ccncc2)cc1` (stereo unspecified) it was below 500 nM; in that of `CONC(=O)C(N)c1ccc(C(=O)Nc2ccncc2)cc1` (stereo unspecified), 500 to 5000 nM. In the case of `NC(CC(=O)N1CCc2c([nH]c3ccccc23)C1)c1ccc(C(=O)Nc2ccncc2)cc1` (stereo unspecified) it was below 500 nM; in that of `NC(C(=O)NC1CCN(Cc2ccccc2)CC1)c1ccc(C(=O)Nc2ccncc2)cc1` (stereo unspecified), 500 to 5000 nM; in that of `COc1cccc(C2CCCCN2C(=O)CC(N)c2ccc(C(=O)Nc3ccncc3)cc2)c1` (stereo unspecified), below 500 nM. As to `COc1ccc(S(=O)(=O)NCC(N)c2ccc(C(=O)Nc3ccncc3)cc2)cc1OC` (stereo unspecified), the IC50 is below 500 nM.

Consider `COCCNC(=O)C(N)c1ccc(C(=O)Nc2ccncc2)cc1` (stereo unspecified), for which the IC50 was in the range of 500 to 5000 nM.

As to `NC(CC(=O)N1CCN(CCO)CC1)c1ccc(C(=O)Nc2ccncc2)cc1` (stereo unspecified), the IC50 is below 500 nM. In the case of `COc1ccc(NC(=O)C(N)c2ccc(C(=O)Nc3ccncc3)cc2)cc1` (stereo unspecified), the IC50 was below 500 nM.

`CN(CC(N)c1ccc(C(=O)Nc2ccncc2)cc1)S(=O)(=O)c1cccc(F)c1` (stereo unspecified) showed an IC50 of 500 to 5000 nM. The value for `NC(C(=O)N1CCN(Cc2ccc(F)cc2)CC1)c1ccc(C(=O)Nc2ccncc2)cc1` (stereo unspecified) was 500 to 5000 nM. In the case of `CN(CC(N)c1ccc(C(=O)Nc2ccncc2)cc1)S(=O)(=O)c1ccccc1F` (stereo unspecified) it was 500 to 5000 nM. The value for `NC(CNS(=O)(=O)c1ccccc1Cl)c1ccc(C(=O)Nc2ccncc2)cc1` (stereo unspecified) was below 500 nM. The compound `COc1ccc(CN2CCN(C(=O)C(N)c3ccc(C(=O)Nc4ccncc4)cc3)CC2)cc1` (stereo unspecified) gave an IC50 of 500 to 5000 nM. In the case of `NC(C(=O)NCCN1CCOCC1)c1ccc(C(=O)Nc2ccncc2)cc1` (stereo unspecified) it was 500 to 5000 nM. The value for `CCC(C)(C)NC(=O)C(N)c1ccc(C(=O)Nc2ccncc2)cc1` (stereo unspecified) was 500 to 5000 nM; that for `NC(CNS(=O)(=O)c1ccccc1)c1ccc(C(=O)Nc2ccncc2)cc1` (stereo unspecified) was below 500 nM; that for `NC(CC(=O)N1CCCC1c1ccc(Cl)cc1)c1ccc(C(=O)Nc2ccncc2)cc1` (stereo unspecified) was below 500 nM. The value for `NC(CC(=O)N1CCc2c(Cl)cccc2C1)c1ccc(C(=O)Nc2ccncc2)cc1` (stereo unspecified) was below 500 nM. `CCC(NC(=O)C(N)c1ccc(C(=O)Nc2ccncc2)cc1)c1ccccc1` (stereo unspecified) registered an IC50 below 500 nM. Turning to `NC(C(=O)NCc1ccco1)c1ccc(C(=O)Nc2ccncc2)cc1` (stereo unspecified), the IC50 is below 500 nM. In the case of `CCCCCCCCS(=O)(=O)NCC(N)c1ccc(C(=O)Nc2ccncc2)cc1` (stereo unspecified) it was 500 to 5000 nM. The value for `NC(CC(=O)N1CCN(C(=O)c2ccco2)CC1)c1ccc(C(=O)Nc2ccncc2)cc1` (stereo unspecified) was below 500 nM; that for `NC(C(=O)NCCc1cccs1)c1ccc(C(=O)Nc2ccncc2)cc1` (stereo unspecified) was below 500 nM; that for `NC(C(=O)N1CCN(Cc2ccccc2F)CC1)c1ccc(C(=O)Nc2ccncc2)cc1` (stereo unspecified) was 500 to 5000 nM. In the case of `CS(=O)(=O)NCCNC(=O)C(N)c1ccc(C(=O)Nc2ccncc2)cc1` (stereo unspecified) it was 500 to 5000 nM; in that of `NC(C(=O)NCc1cccc(Cl)c1)c1ccc(C(=O)Nc2ccncc2)cc1` (stereo unspecified), below 500 nM; in that of `NC(CC(=O)N1CCCC2CCCCC21)c1ccc(C(=O)Nc2ccncc2)cc1` (stereo unspecified), below 500 nM. For the compound `NC(CC(=O)N1Cc2ccccc2C1)c1ccc(C(=O)Nc2ccncc2)cc1` (stereo unspecified), the IC50 is below 500 nM. Take `CCCCS(=O)(=O)NCC(N)c1ccc(C(=O)Nc2ccncc2)cc1` (stereo unspecified): the IC50 is below 500 nM.

Compound `CCS(=O)(=O)NCC(N)c1ccc(C(=O)Nc2ccncc2)cc1` (stereo unspecified) gave an IC50 below 500 nM.

As to `NC(CC(=O)N1CCOCC1c1ccccc1)c1ccc(C(=O)Nc2ccncc2)cc1` (stereo unspecified), the concentration for half-maximal inhibition (IC50) was below 500 nM. In the case of `N[C@@H](C(=O)NCc1ccccc1)c1ccc(C(=O)Nc2ccncc2)cc1` it was 500 to 5000 nM; in that of `N[C@@H](CC(=O)N1CCC[C@@H]1c1cccc(F)c1)c1ccc(C(=O)Nc2ccncc2)cc1`, below 500 nM. In the case of `NC(C(=O)N1CCCC1c1cccc(F)c1)c1ccc(C(=O)Nc2ccncc2)cc1` (stereo unspecified) it was below 500 nM.

`Cc1noc(C)c1S(=O)(=O)NCC(N)c1ccc(C(=O)Nc2ccncc2)cc1` (stereo unspecified) gave an IC50 below 500 nM. In the case of `CC(C)N1CCN(C(=O)CC(N)c2ccc(C(=O)Nc3ccncc3)cc2)CC1` (stereo unspecified) it was below 500 nM.

For the origin of these results see the Kinase Knowledgebase extract (Sharma et al. 2016).
